The text below walks through data of PubChem BioAssay (NCI).

As usually defined, the TGI is the concentration giving total growth inhibition.

Among the test systems are M19-MEL melanoma; LXFL 529 NSCLC; SNB-78 CNS; KM20L2 colon; DMS 114 small cell lung; RXF-631 renal; DMS 273 small cell lung; XF 498 CNS; HOP-18 NSCLC.
Holding throughout (experiment): DTP human tumour cell line panel, 48 h

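A five-concentration, 48-hour dose response in 96-well plates underlies each endpoint, interpolated linearly between surrounding concentrations. TGI marks complete inhibition of growth.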

For the compound `CN(C(=O)C12C3C4C1C1C4(C(=O)C45C6C7C4C4C5C6C74C)C3C12C)C(C)(C)C` (stereo unspecified), the TGI is greater than 100 µM with M19-MEL melanoma; greater than 100 µM in the experiment with LXFL 529 NSCLC; greater than 100 µM in the experiment with SNB-78 CNS; 85.3 µM in the experiment on KM20L2 colon; greater than 100 µM with DMS 114 small cell lung; greater than 100 µM in the experiment on RXF-631 renal. Besides, the TGI with DMS 273 small cell lung and in the experiment on XF 498 CNS was greater than 100 µM in each case.
On to `O=C1CCC(=O)N1Cc1ccccc1N=[N+]([O-])c1ccccc1CN1C(=O)CCC1=O`, for which the TGI with M19-MEL melanoma, with LXFL 529 NSCLC, in the experiment on SNB-78 CNS, with KM20L2 colon, with DMS 114 small cell lung and in the experiment with DMS 273 small cell lung was greater than 100 µM each time. The compound further came in with a total growth inhibition concentration (TGI) with XF 498 CNS greater than 100 µM.
Consider `CCN=C(NNc1ccc([N+](=O)[O-])cc1)P(=O)(OC(C)C)OC(C)C`, for which the TGI in the experiment with M19-MEL melanoma, with LXFL 529 NSCLC, in the experiment on SNB-78 CNS, in the experiment with KM20L2 colon, in the experiment with DMS 114 small cell lung and in the experiment with DMS 273 small cell lung was greater than 100 µM each time. This compound also came in with a concentration for total growth inhibition (TGI) in the experiment on XF 498 CNS greater than 100 µM.
As for `COc1ccc(C(=O)Cc2c(C(=O)c3ccccc3)c3ccccc3n2C(=O)c2ccccc2)cc1`, the total growth inhibition concentration (TGI) with M19-MEL melanoma, in the experiment with LXFL 529 NSCLC, with KM20L2 colon, in the experiment on DMS 114 small cell lung, with DMS 273 small cell lung and with XF 498 CNS was greater than 100 µM throughout.
On to `COC(=O)N1CCc2c(nc(N(C)CCO)[nH]c2=O)C1`, for which the TGI with M19-MEL melanoma, in the experiment with LXFL 529 NSCLC, in the experiment on SNB-78 CNS, in the experiment with KM20L2 colon, with HOP-18 NSCLC and in the experiment with DMS 114 small cell lung was greater than 100 µM in each case. For the same compound, the TGI in the experiment on DMS 273 small cell lung and with XF 498 CNS was greater than 100 µM in each case.
Take `Nc1ccc2nc(Nc3ccc(F)cc3)cnc2c1`: the TGI in the experiment on M19-MEL melanoma, with DMS 114 small cell lung, with DMS 273 small cell lung and in the experiment on XF 498 CNS was greater than 100 µM each time.
Consider `CSc1nc(Cl)c(Br)c(Sc2nc(N)nc3nc[nH]c23)n1`, for which the TGI stood at 23.4 µM in the experiment on M19-MEL melanoma; 18.7 µM with LXFL 529 NSCLC; 18.8 µM with KM20L2 colon; 18.9 µM with DMS 114 small cell lung; 15.6 µM in the experiment on DMS 273 small cell lung; 30.1 µM in the experiment on XF 498 CNS.
